Measured values: patent US8642585B2, “Indanyloxydihydrobenzofuranylacetic acids” (Boehringer Ingelheim International GmbH, priority 2012, dated 2014)

Target: human GPR40 receptor (Homo sapiens, UniProt O14842)
Test: Assay II: IP1 accumulation (IPOne HTRF) in 1321N1 cells stably expressing human GPR40
Format: cell-based
Settings: 1321N1 cells expressing human GPR40, stimulation 1 h at 37° C., 5% CO2, LiCl 50 mM
Experimental: IP1 accumulation measurements using the IPOne assay system—1321N1 cells stably expressing human GPR40 receptor (Euroscreen, Belgium) are seeded 24 h before the assay in white 384-well plates in culture medium containing 10% FCS, 1% Na-Pyruvate and 400 μg/mL G418. IP1 is assayed according to the manufacturers description (Cisbio Bioassays, France). In brief, the assay is started by substitution of the culture medium by stimulation buffer (Hepes 10 mM, CaCl2 1 mM, MgCl2 0.5 mM, KCl 4.2 mM, NaCl 146 mM, glucose 5.5 mM and LiCl 50 mM, pH 7.4). Cells are stimulated for 1 h at 37° C., 5% CO2 by addition of the compounds that are diluted in stimulation buffer containing LiCl. Assays are stopped by adding HTRF-conjugates (IP1-d2 and Anti-IP1 cryptate Tb) and lysis buffer, provided by the manufacturer. After an incubation time of 1 h at room temperature plates are measured using an EnVision™, Perkin Elmer. The obtained fluorescence ratios at 665/615 nM are then used to calculate the pEC50 values using Assay Explorer 3.3 Software (Accelrys, Inc.) by interpolation using an IP1 reference curve and subsequent sigmoidal curve fitting allowing for a variable hill slope.

Chain of human GPR40 receptor (O14842 whole entry): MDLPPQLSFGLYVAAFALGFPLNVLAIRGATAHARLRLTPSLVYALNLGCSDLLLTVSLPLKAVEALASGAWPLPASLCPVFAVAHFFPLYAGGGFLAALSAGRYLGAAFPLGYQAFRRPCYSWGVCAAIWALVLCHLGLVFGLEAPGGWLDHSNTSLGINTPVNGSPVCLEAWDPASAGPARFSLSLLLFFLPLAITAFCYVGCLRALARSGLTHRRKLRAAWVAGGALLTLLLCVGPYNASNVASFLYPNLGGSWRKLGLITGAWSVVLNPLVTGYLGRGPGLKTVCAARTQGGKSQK

SMILES	EC50
Cc1cc(-c2ccnnc2)cc(C)c1-c1ccc(F)c2c1CC[C@H]2Oc1ccc2c(c1)OC[C@H]2CC(=O)O [Example 90, 2-((S)-6-((R)-4-(2,6-Dimethyl-4-(pyridazin-4-yl)phenyl)-7-fluoro-2,3-dihydro-1H-inden-1-yloxy)-2,3-dihydrobenzofuran-3-yl)acetic acid]	5 nM
Cc1cc(-c2ccncc2)cc(C)c1-c1ccc(F)c2c1CC[C@H]2Oc1ccc2c(c1)OC[C@H]2CC(=O)O [Example 104, {(S)-6-[(R)-4-(2,6-Dimethyl-4-pyridin-4-yl-phenyl)-7-fluoro-indan-1-yloxy]-2,3-dihydro-benzofuran-3-yl}-acetic acid]	7 nM
CN(C)C(=O)c1ccccc1-c1ccc(F)c2c1CC[C@H]2Oc1ccc2c(c1)OC[C@H]2CC(=O)O [Example 102, 2-((3S)-6-((1R)-4-(2-(Dimethylcarbamoyl)phenyl)-7-fluoro-2,3-dihydro-1H-inden-1-yloxy)-2,3-dihydrobenzofuran-3-yl)acetic acid]	2240 nM
Cc1cc(-c2cn(C)cn2)cc(C)c1-c1ccc(F)c2c1CC[C@H]2Oc1ccc2c(c1)OC[C@H]2CC(=O)O [Example 133, {(S)-6-[(R)-4-(2,6-Dimethyl-4-(1-methyl-imidazol-4-yl)-phenyl)-7-fluoro-indan-1-yloxy]-2,3-dihydro-benzofuran-3-yl}-acetic acid]	2 nM
Cc1cc(OCCNS(C)(=O)=O)cc(C)c1-c1ccc(F)c2c1CC[C@H]2Oc1ccc2c(c1)OC[C@H]2CC(=O)O [Example 71, 2-((S)-6-((R)-4-(2,6-Dimethyl-4-(2-(methylsulfonamido)ethoxy)phenyl)-7-fluoro-2,3-dihydro-1H-inden-1-yloxy)-2,3-dihydrobenzofuran-3-yl)acetic acid]	28 nM
Cc1cc(OC2CCN(C)C2=O)cc(C)c1-c1ccc(F)c2c1CC[C@H]2Oc1ccc2c(c1)OC[C@H]2CC(=O)O (stereo partly drawn) [Example 76, 2-((3S)-6-((1R)-4-(2,6-Dimethyl-4-(1-methyl-2-oxopyrrolidin-3-yloxy)phenyl)-7-fluoro-2,3-dihydro-1H-inden-1-yloxy)-2,3-dihydrobenzofuran-3-yl)acetic acid]	27 nM
Cc1cc(-c2cc(C)c(-c3ccc(F)c4c3CC[C@H]4Oc3ccc4c(c3)OC[C@H]4CC(=O)O)c(C)c2)cnn1 [Example 130, {(S)-6-[(R)-4-(2,6-Dimethyl-4-(6-methyl-pyridazin-4-yl)-phenyl)-7-fluoro-indan-1-yloxy]-2,3-dihydro-benzofuran-3-yl}-acetic acid]	5 nM
Cc1cc(-c2ccccn2)cc(C)c1-c1ccc(F)c2c1CC[C@H]2Oc1ccc2c(c1)OC[C@H]2CC(=O)O [Example 137, {(S)-6-[(R)-4-(2,6-Dimethyl-4-pyridin-2-yl-phenyl)-7-fluoro-indan-1-yloxy]-2,3-dihydro-benzofuran-3-yl}-acetic acid]	2 nM
Cc1cc(-c2nccs2)cc(C)c1-c1ccc(F)c2c1CC[C@H]2Oc1ccc2c(c1)OC[C@H]2CC(=O)O [Example 132, {(S)-6-[(R)-4-(2,6-Dimethyl-4-thiazol-2-yl-phenyl)-7-fluoro-indan-1-yloxy]-2,3-dihydro-benzofuran-3-yl}-acetic acid]	2 nM
Cc1cccnc1-c1cc(C)c(-c2ccc(F)c3c2CC[C@H]3Oc2ccc3c(c2)OC[C@H]3CC(=O)O)c(C)c1 [Example 138, {(S)-6-[(R)-4-(2,6-Dimethyl-4-(3-methyl-pyridin-2-yl)-phenyl)-7-fluoro-indan-1-yloxy]-2,3-dihydro-benzofuran-3-yl}-acetic acid]	9 nM
Cc1nn(C)c(C)c1-c1ncccc1-c1ccc(F)c2c1CC[C@H]2Oc1ccc2c(c1)OC[C@H]2CC(=O)O [Example 108, {(S)-6-[(R)-7-Fluoro-4-[2-(1,3,5-trimethyl-pyrazol-4-yl)-pyridin-3-yl]-indan-1-yloxy]-2,3-dihydro-benzofuran-3-yl}-acetic acid]	> 10000 nM
O=C(O)C[C@@H]1COc2cc(O[C@@H]3CCc4c(-c5cccnc5-c5ccoc5)ccc(F)c43)ccc21 [Example 105, {(S)-6-[(R)-7-Fluoro-4-(2-furan-3-yl-pyridin-3-yl)-indan-1-yloxy]-2,3-dihydro-benzofuran-3-yl}-acetic acid]	582 nM
COc1cc(-c2cc(C)c(-c3ccc(F)c4c3CC[C@H]4Oc3ccc4c(c3)OC[C@H]4CC(=O)O)c(C)c2)ccn1 [Example 116, {(S)-6-[(R)-4-(2,6-Dimethyl-4-(2-methoxy-pyridin-4-yl)-phenyl)-7-fluoro-indan-1-yloxy]-2,3-dihydro-benzofuran-3-yl}-acetic acid]	3 nM
Cc1cc(OCC(C)(C)S(C)(=O)=O)cc(C)c1-c1ccc(F)c2c1CC[C@H]2Oc1ccc2c(c1)OC[C@H]2CC(=O)O [Example 45, ((S)-6-{(R)-7-Fluoro-4-[4-(2-methanesulfonyl-2-methyl-propoxy)-2,6-dimethyl-phenyl]-indan-1-yloxy}-2,3-dihydro-benzofuran-3-yl)-acetic acid]	9 nM
Cc1ccc(-c2cc(C)c(-c3ccc(F)c4c3CC[C@H]4Oc3ccc4c(c3)OC[C@H]4CC(=O)O)c(C)c2)nc1 [Example 143, {(S)-6-[(R)-4-(2,6-Dimethyl-4-(5-methyl-pyridin-2-yl)-phenyl)-7-fluoro-indan-1-yloxy]-2,3-dihydro-benzofuran-3-yl}-acetic acid]	3 nM
Cc1cc(OCC2CCOCC2)cc(C)c1-c1ccc(F)c2c1CC[C@H]2Oc1ccc2c(c1)OC[C@H]2CC(=O)O [Example 150, 2-((S)-6-((R)-4-(2,6-dimethyl-4-((tetrahydro-2H-pyran-4-yl)methoxy)phenyl)-7-fluoro-2,3-dihydro-1H-inden-1-yloxy)-2,3-dihydrobenzofuran-3-yl)acetic acid]	6 nM
Cc1cc(-c2ccn(C)c(=O)n2)cc(C)c1-c1ccc(F)c2c1CC[C@H]2Oc1ccc2c(c1)OC[C@H]2CC(=O)O [Example 97, 2-((S)-6-((R)-4-(2,6-Dimethyl-4-(1-methyl-2-oxo-1,2-dihydropyrimidin-4-yl)phenyl)-7-fluoro-2,3-dihydro-1H-inden-1-yloxy)-2,3-dihydrobenzofuran-3-yl)acetic acid]	5 nM
Cc1cc(-c2nccn2C)cc(C)c1-c1ccc(F)c2c1CC[C@H]2Oc1ccc2c(c1)OC[C@H]2CC(=O)O [Example 144, {(S)-6-[(R)-4-(2,6-Dimethyl-4-(1-methyl-imidazol-2-yl)-phenyl)-7-fluoro-indan-1-yloxy]-2,3-dihydro-benzofuran-3-yl}-acetic acid]	17 nM
Cc1cc(-c2nnn(C(C)(C)CO)n2)cc(C)c1-c1ccc(F)c2c1CC[C@H]2Oc1ccc2c(c1)OC[C@H]2CC(=O)O [Example 99, 2-((S)-6-((R)-7-Fluoro-4-(4-(2-(1-hydroxy-2-methylpropan-2-yl)-2H-tetrazol-5-yl)-2,6-dimethylphenyl)-2,3-dihydro-1H-inden-1-yloxy)-2,3-dihydrobenzofuran-3-yl)acetic acid]	4 nM
Cc1cnc(-c2cc(C)c(-c3ccc(F)c4c3CC[C@H]4Oc3ccc4c(c3)OC[C@H]4CC(=O)O)c(C)c2)cn1 [Example 114, {(S)-6-[(R)-4-(2,6-Dimethyl-4-(5-methyl-pyrazin-2-yl)-phenyl)-7-fluoro-indan-1-yloxy]-2,3-dihydro-benzofuran-3-yl}-acetic acid]	2 nM
Cc1cc(OCC2(O)CCS(=O)(=O)CC2)cc(C)c1-c1ccc(F)c2c1CC[C@H]2Oc1ccc2c(c1)OC[C@H]2CC(=O)O [Example 69, 2-((S)-6-((R)-7-Fluoro-4-(4-((1,1-dioxo-4-hydroxytetrahydro-2H-thiopyran-4-yl)methoxy)-2,6-dimethylphenyl)-2,3-dihydro-1H-inden-1-yloxy)-2,3-dihydrobenzofuran-3-yl)acetic acid]	8 nM
Cc1cc(O[C@H]2CCCN(S(C)(=O)=O)C2)cc(C)c1-c1ccc(F)c2c1CC[C@H]2Oc1ccc2c(c1)OC[C@H]2CC(=O)O [Example 50, ((S)-6-{(R)-7-Fluoro-4-[4-((S)-1-methanesulfonyl-piperidin-3-yloxy)-2,6-dimethyl-phenyl]-indan-1-yloxy}-2,3-dihydro-benzofuran-3-yl)-acetic acid]	20 nM
Cc1cc(OCc2ncco2)cc(C)c1-c1ccc(F)c2c1CC[C@H]2Oc1ccc2c(c1)OC[C@H]2CC(=O)O [Example 148, 2-((S)-6-((R)-4-(2,6-dimethyl-4-(oxazol-2-ylmethoxy)phenyl)-7-fluoro-2,3-dihydro-1H-inden-1-yloxy)-2,3-dihydrobenzofuran-3-yl)acetic acid]	13 nM
COc1ccc(-c2cc(C)c(-c3ccc(F)c4c3CC[C@H]4Oc3ccc4c(c3)OC[C@H]4CC(=O)O)c(C)c2)cn1 [Example 126, {(S)-6-[(R)-4-(2,6-Dimethyl-4-(6-methoxy-pyridin-3-yl)-phenyl)-7-fluoro-indan-1-yloxy]-2,3-dihydro-benzofuran-3-yl}-acetic acid]	6 nM
Cn1nnnc1-c1c(F)cccc1-c1ccc(F)c2c1CC[C@H]2Oc1ccc2c(c1)OC[C@H]2CC(=O)O [Example 103, 2-((3S)-6-((1R)-7-Fluoro-4-(3-fluoro-2-(1-methyl-1H-tetrazol-5-yl)phenyl)-2,3-dihydro-1H-inden-1-yloxy)-2,3-dihydrobenzofuran-3-yl)acetic acid]	1430 nM
